These results are taken from patent US11214803B2, “Modulators of YAP1 expression” (Ionis Pharmaceuticals, Inc., priority 2019, dated 2022).

Strand notation (5' to 3'): a small letter for the sugar, then the base; units joined by * are phosphorothioate-linked, units joined directly phosphodiester-linked; [ ] holds rarer units or linkages, { } end groups; capitals alone tell only the bases. k = constrained ethyl (cEt); [5mC] = 5-methylcytosine; d = 2'-deoxy (DNA)

In the first data set the test system is Yap1 mRNA. Put plainly: Antisense inhibition of human Yap1 in A-431 cells by cEt gapmers, single dose (Example 1, RTS4814). The format is cell-based. The following applies: A-431 cells, 5,000 cells per well, free uptake, 2,000 nM modified oligonucleotide, approx. 48 hours, RTS4814, normalized to RIBOGREEN; Table 3. How it is done:
Modified oligonucleotides were designed to target a Yap1 nucleic acid and were tested for their effect on Yap1 mRNA level in vitro. The modified oligonucleotides were tested in a series of experiments that had similar culture conditions. Cultured A-431 cells at a density of 5,000 cells per well were treated using free uptake with 2,000 nM of modified oligonucleotide. After a treatment period of approximately 48 hours, RNA was isolated from the cells and Yap1 mRNA levels were measured by quantitative real-time RTPCR. Human primer probe set RTS4814 (forward sequence […], designated herein as SEQ ID NO.: 11; reverse sequence […], designated herein as SEQ ID NO.: 12; probe sequence […], designated herein as SEQ ID NO.: 13) was used to measure mRNA levels. Yap1 mRNA levels were normalized to total RNA content, as measured by RIBOGREEN®. Results are presented in the tables below as percent control of the amount of Yap1 mRNA relative to untreated control cells (% UTC). The modified oligonucleotides with percent control values marked with an asterisk (*) target the amplicon region of the primer probe set. Additional assays may be used to measure the potency and efficacy of the modified oligonucleotides targeting the amplicon region.
The newly designed modified oligonucleotides in the Tables below were designed as 3-10-3 cEt gapmers. The gapmers are 16 nucleosides in length, wherein the central gap segment comprises of ten 2′-deoxynucleosides and is flanked by wing segments on the 5′ direction and the 3′ direction comprising three nucleosides each. Each nucleoside in the 5′ wing segment and each nucleoside in the 3′ wing segment has a cEt sugar modification. The internucleoside linkages throughout each gapmer are phosphorothioate (P═S) linkages. All cytosine residues throughout each gapmer are 5-methylcytosines.
“Start site” indicates the 5′-most nucleoside to which the gapmer is targeted in the human gene sequence. “Stop site” indicates the 3′-most nucleoside to which the gapmer is targeted human gene sequence. […] Activity of the modified oligonucleotide may be defined in a different experiment.
Consider “715432 (k[5mC]*kT*k[5mC]*d[5mC]*dA*dT*d[5mC]*d[5mC]*dT*dG*dA*dG*dT*k[5mC]*kA*kT; antisense) [Compound 715432]”, for which the “YAP1 (% UTC)” value is on record as 65 % UTC.
With “715435 (antisense kG*kG*kT*d[5mC]*dT*dT*dG*dT*dT*d[5mC]*dT*dT*dA*kT*kG*kG) [Compound 715435]”, the “YAP1 (% UTC)” value amounted to 36 % UTC.
Turning to “715438 (antisense kT*kT*k[5mC]*dA*dT*dG*dG*d[5mC]*dA*dA*dA*dA*d[5mC]*kG*kA*kG) [Compound 715438]”, the “YAP1 (% UTC)” value worked out at 82 % UTC.
Same read-out and setting: the result for “715441 (antisense k[5mC]*kT*k[5mC]*dT*dG*dG*dT*dT*d[5mC]*dA*dT*dG*dG*k[5mC]*kA*kA) [Compound 715441]” reads 57 % UTC; that for “715444 (antisense kT*k[5mC]*k[5mC]*d[5mC]*dT*dG*dT*dG*dG*dG*d[5mC]*dT*d[5mC]*kT*kG*kG) [Compound 715444]”, 84 % UTC; that for “715447 (antisense k[5mC]*kA*kA*dT*dT*d[5mC]*d[5mC]*dT*dG*dA*dG*dA*d[5mC]*kA*kT*k[5mC]) [Compound 715447]”, 81 % UTC.
Still for that read-out and setting: the result for “715450 (antisense kT*kT*kG*dT*dT*d[5mC]*dT*d[5mC]*dA*dA*dT*dT*d[5mC]*k[5mC]*kT*kG) [Compound 715450]” reads 53 % UTC; that for “715453 (antisense kA*kG*kG*dT*dG*d[5mC]*d[5mC]*dA*d[5mC]*dT*dG*dT*dT*kA*kA*kG) [Compound 715453]”, 59 % UTC; that for “715456 (antisense kA*kG*kT*dG*dA*dT*dA*dG*dG*dT*dG*d[5mC]*d[5mC]*kA*k[5mC]*kT) [Compound 715456]”, 96 % UTC.
Same read-out and setting: the same measure for “715459 (antisense k[5mC]*kT*k[5mC]*dG*dA*dG*dA*dG*dT*dG*dA*dT*dA*kG*kG*kT) [Compound 715459]”: 93 % UTC; for “715462 (antisense kT*k[5mC]*kT*d[5mC]*dA*dT*d[5mC]*dT*d[5mC]*dG*dA*dG*dA*kG*kT*kG) [Compound 715462]”: 94 % UTC; for “715465 (antisense kG*kT*k[5mC]*d[5mC]*dA*d[5mC]*dA*dT*dT*dT*dG*dT*d[5mC]*k[5mC]*k[5mC]*kA) [Compound 715465]”: 91 % UTC.
For “715468 (antisense kG*k[5mC]*kT*dT*dG*dG*dT*dG*dG*d[5mC]*dA*dG*d[5mC]*k[5mC]*kA*kA) [Compound 715468]”, the “YAP1 (% UTC)” value turned out to be 90 % UTC.
In the case of “715471 (antisense kT*kA*kT*d[5mC]*dT*dA*dG*d[5mC]*dT*dT*dG*dG*dT*kG*kG*k[5mC]) [Compound 715471]”, the “YAP1 (% UTC)” value is reported as 36 % UTC.
Take “715474 (antisense k[5mC]*kT*kT*dT*d[5mC]*dT*dT*dT*dA*dT*d[5mC]*dT*dA*kG*k[5mC]*kT) [Compound 715474]”: the “YAP1 (% UTC)” value came out at 78 % UTC.

Staying with this data set, now noted: Table 1; A-431 cells, free uptake, 2,000 nM, approximately 48 hours, RTS4814; Yap1 mRNA relative to untreated control cells.
As to “715433 (antisense kT*kG*kT*dT*d[5mC]*dT*dT*dA*dT*dG*dG*dT*dT*kT*kA*kT) [Compound 715433]”, the “YAP1 (% UTC)” value came out at 36 % UTC.
Same read-out and setting: the result for “715436 (antisense kT*kG*kG*d[5mC]*dA*dA*dA*dA*d[5mC]*dG*dA*dG*dG*kG*kT*k[5mC]) [Compound 715436]” reads 126 % UTC.
On to “715439 (antisense kG*kG*kT*dT*d[5mC]*dA*dT*dG*dG*d[5mC]*dA*dA*dA*kA*k[5mC]*kG) [Compound 715439]”, for which the “YAP1 (% UTC)” value is listed as 99 % UTC.
On the same count and under the same terms, the same measure for “715442 (antisense k[5mC]*kA*k[5mC]*dT*dG*dG*dA*dG*d[5mC]*dA*d[5mC]*dT*d[5mC]*kT*kG*kA) [Compound 715442]”: 64 % UTC; for “715445 (antisense k[5mC]*kA*kT*d[5mC]*d[5mC]*dT*dG*d[5mC]*dT*d[5mC]*d[5mC]*dA*dG*kT*kG*kT) [Compound 715445]”: 87 % UTC.
Same read-out and setting: the same measure for “715448 (antisense k[5mC]*kT*k[5mC]*dA*dA*dT*dT*d[5mC]*d[5mC]*dT*dG*dA*dG*kA*k[5mC]*kA) [Compound 715448]”: 97 % UTC; for “715451 (antisense k[5mC]*kA*kT*dT*dG*dT*dT*d[5mC]*dT*d[5mC]*dA*dA*dT*kT*k[5mC]*k[5mC]) [Compound 715451]”: 75 % UTC; for “715454 (antisense kA*kT*kA*dG*dG*dT*dG*d[5mC]*d[5mC]*dA*d[5mC]*dT*dG*kT*kT*kA) [Compound 715454]”: 78 % UTC.
Take “715457 (antisense kA*kG*kA*dG*dT*dG*dA*dT*dA*dG*dG*dT*dG*k[5mC]*k[5mC]*kA) [Compound 715457]”: the “YAP1 (% UTC)” value came to 47 % UTC.
On the same count and under the same terms, the same measure for “715460 (antisense kA*kT*k[5mC]*dT*d[5mC]*dG*dA*dG*dA*dG*dT*dG*dA*kT*kA*kG) [Compound 715460]”: 114 % UTC.
For the substance “715463 (antisense k[5mC]*kT*kG*dT*dA*dG*d[5mC]*dT*dG*d[5mC]*dT*d[5mC]*dA*kT*kG*k[5mC]) [Compound 715463]”, the “YAP1 (% UTC)” value amounted to 73 % UTC.
On to “715466 (antisense k[5mC]*kA*kA*dG*dG*dT*d[5mC]*d[5mC]*dA*d[5mC]*dA*dT*dT*kT*kG*kT) [Compound 715466]”, for which the “YAP1 (% UTC)” value is listed as 83 % UTC.
In the case of “715469 (antisense kT*kA*kG*d[5mC]*dT*dT*dG*dG*dT*dG*dG*d[5mC]*dA*kG*k[5mC]*k[5mC]) [Compound 715469]”, the “YAP1 (% UTC)” value came out at 94 % UTC.
As to “715472 (antisense kT*kT*kT*dA*dT*d[5mC]*dT*dA*dG*d[5mC]*dT*dT*dG*kG*kT*kG) [Compound 715472]”, the “YAP1 (% UTC)” value came out at 52 % UTC.
In the case of “715475 (antisense kA*kG*k[5mC]*dT*dT*dT*d[5mC]*dT*dT*dT*dA*dT*d[5mC]*kT*kA*kG) [Compound 715475]”, the “YAP1 (% UTC)” value is listed as 103 % UTC.

The data set is the same for the next values; noted with them: Table 2; A-431 cells, free uptake, 2,000 nM, approximately 48 hours, RTS4814; Yap1 mRNA relative to untreated control cells.
Take “715434 (antisense kT*k[5mC]*kT*dT*dG*dT*dT*d[5mC]*dT*dT*dA*dT*dG*kG*kT*kT) [Compound 715434]”: the “YAP1 (% UTC)” value is 31 % UTC.
“715437 (antisense k[5mC]*kA*kT*dG*dG*d[5mC]*dA*dA*dA*dA*d[5mC]*dG*dA*kG*kG*kG) [Compound 715437]”: the “YAP1 (% UTC)” value worked out at 89 % UTC.
Take “715440 (antisense k[5mC]*kT*kG*dG*dT*dT*d[5mC]*dA*dT*dG*dG*d[5mC]*dA*kA*kA*kA) [Compound 715440]”: the “YAP1 (% UTC)” value is on record as 85 % UTC.
As for “715443 (antisense kT*kT*k[5mC]*dA*d[5mC]*dT*dG*dG*dA*dG*d[5mC]*dA*d[5mC]*kT*k[5mC]*kT) [Compound 715443]”, the “YAP1 (% UTC)” value is given as 40 % UTC.
“715446 (antisense kA*kT*kT*d[5mC]*d[5mC]*dT*dG*dA*dG*dA*d[5mC]*dA*dT*k[5mC]*k[5mC]*k[5mC]) [Compound 715446]”: the “YAP1 (% UTC)” value is 81 % UTC.
For the substance “715449 (antisense kT*kT*k[5mC]*dT*d[5mC]*dA*dA*dT*dT*d[5mC]*d[5mC]*dT*dG*kA*kG*kA) [Compound 715449]”, the “YAP1 (% UTC)” value is recorded as 124 % UTC.
On the same count and under the same terms, the same measure for “715452 (antisense kG*kT*k[5mC]*dA*dT*dT*dG*dT*dT*d[5mC]*dT*d[5mC]*dA*kA*kT*kT) [Compound 715452]”: 71 % UTC.
Still for that read-out and setting: the same measure for “715455 (antisense kT*kG*kA*dT*dA*dG*dG*dT*dG*d[5mC]*d[5mC]*dA*d[5mC]*kT*kG*kT) [Compound 715455]”: 65 % UTC.
Consider “715458 (antisense k[5mC]*kG*kA*dG*dA*dG*dT*dG*dA*dT*dA*dG*dG*kT*kG*k[5mC]) [Compound 715458]”, for which the “YAP1 (% UTC)” value amounted to 58 % UTC.
Same read-out and setting: the result for “715461 (antisense kT*k[5mC]*kA*dT*d[5mC]*dT*d[5mC]*dG*dA*dG*dA*dG*dT*kG*kA*kT) [Compound 715461]” reads 153 % UTC; that for “715464 (antisense k[5mC]*k[5mC]*kA*d[5mC]*dA*dT*dT*dT*dG*dT*d[5mC]*d[5mC]*d[5mC]*kA*kG*kG) [Compound 715464]”, 89 % UTC.
In the case of “715467 (antisense k[5mC]*kA*kT*d[5mC]*dT*d[5mC]*d[5mC]*dT*dT*d[5mC]*d[5mC]*dA*dG*kT*kG*kT) [Compound 715467]”, the “YAP1 (% UTC)” value turned out to be 77 % UTC.
For the substance “715470 (antisense kT*k[5mC]*kT*dA*dG*d[5mC]*dT*dT*dG*dG*dT*dG*dG*k[5mC]*kA*kG) [Compound 715470]”, the “YAP1 (% UTC)” value worked out at 83 % UTC.
Consider “715473 (antisense kT*k[5mC]*kT*dT*dT*dA*dT*d[5mC]*dT*dA*dG*d[5mC]*dT*kT*kG*kG) [Compound 715473]”, for which the “YAP1 (% UTC)” value is 32 % UTC.
